The record followed here is ChEMBL document CHEMBL5226361, “Marine Sponge-Derived Alkaloid Induces Mitochondrial Dysfunction and Inhibits the PI3K/AKT/mTOR Signaling Pathway against Burkitt's Lymphoma” (J Nat Prod, 2023).

Experiment [1] concerns Daudi. The experiment is described as follows: Antiproliferative activity against human Daudi cells assessed as inhibition of cell growth incubated for 48 hrs by CCK-8 assay. The experiment is classed as functional, cell-based. In general terms: Tetrazolium assays rely on reduction of a dye to a coloured formazan, in cell work by metabolically active cells.
The test system of experiment [2] is Daudi. The experiment is described as follows: Induction of cell cycle arrest in human Daudi cells assessed as accumulation of cells at G0/G1 phase at 3 uM incubated for 24 hrs by PI staining based flow cytometry analysis (reference value: 24.28%). The experiment is classed as functional. (In general: In flow cytometry, cells or beads pass a laser one at a time.)

Experiment [3] has as its system Daudi. The experiment is described as follows: Induction of cell cycle arrest at G0/G1 phase in human Daudi cells assessed as downregulation of CDK4 protein expression at 0.75 to 3 uM incubated for 24 to 48 hrs by Western blot analysis. The experiment is classed as functional, cell-based. Conditions: dose 0.75-3 µM, time 24-48 hrs. On the technique in general: Immunoblotting shows a protein as a band on a membrane.

In experiment [4] the test system is Raji. The experiment is described as follows: Induction of cell cycle arrest at G0/G1 phase in human Raji cells assessed as downregulation of CDK2 protein expression at 1.25 to 5 uM incubated for 24 to 48 hrs by Western blot analysis. Conditions: dose 1.25-5 µM, time 24-48 hrs. Format: functional, cell-based.
The subject of experiment [5] is Raji. Nature of the experiment: Induction of cell cycle arrest at G0/G1 phase in human Raji cells assessed as downregulation of CDK4 protein expression at 1.25 to 5 uM incubated for 24 to 48 hrs by Western blot analysis. Format: functional, cell-based. The conditions noted are these: dose 1.25-5 µM, time 24-48 hrs.
For experiment [6], the system named is Daudi. Nature of the experiment: Induction of cell cycle arrest in human Daudi cells assessed as S phase cells at 3 uM incubated for 24 hrs by PI staining based flow cytometry analysis (reference value: 49.79%). The experiment is classed as functional.
The test system of experiment [7] is Daudi. The experiment is described as follows: Induction of apoptosis in human Daudi cells assessed as upregulation of cleaved caspase-3 expression at 0.75 to 3 uM incubated for 24 hrs by Western blot analysis. The experiment is classed as functional, cell-based. The conditions noted are these: dose 0.75-3 µM.
Experiment [8] concerns Daudi. The experiment is described as follows: Induction of apoptosis in human Daudi cells assessed as effect on cleaved caspase-8 protein expression at 0.75 to 3 uM incubated for 24 hrs by Western blot analysis. The conditions noted are these: dose 0.75-3 µM. The experiment is classed as functional, cell-based.
Experiment [9] concerns Raji. The experiment is described as follows: Induction of apoptosis in human Raji cells assessed as upregulation of cleaved caspase-9 expression at 1.25 to 5 uM incubated for 24 hrs by Western blot analysis. The experiment is classed as functional, cell-based. The conditions noted are these: dose 1.25-5 µM.
Experiment [10] has as its system Raji. Nature of the experiment: Induction of apoptosis in human Raji cells assessed as upregulation of cleaved PARP expression at 1.25 to 5 uM incubated for 24 hrs by Western blot analysis. Format: functional, cell-based. Conditions: dose 1.25-5 µM.
The subject of experiment [11] is Daudi. The experiment is described as follows: Induction of apoptosis in human Daudi cells assessed as nuclear fragmentation incubated for 24 hrs by Hoechst 33258/PI staining based fluorescence microscopic analysis. The experiment is classed as functional, cell-based. Conditions: dose 0.75-3 µM.
Experiment [12] concerns Daudi. Nature of the experiment: Induction of mitochondrial oxidative damage in human Daudi cells assessed as increase in intracellular mitochondrial superoxide generation at 3 uM incubated for 1 to 6 hrs by MitoSOX red dye based flow cytometric analysis. Format: functional, cell-based. The conditions noted are these: time 1-6 hrs.
The test system of experiment [13] is Daudi. Nature of the experiment: Induction of mitochondrial dysfunction in human Daudi cells assessed as decrease in ATP-5J protein expression at 1.5 to 3 uM incubated for 48 hrs by Western blot analysis. The experiment is classed as functional, cell-based. The conditions noted are these: dose 1.5-3 µM.
Experiment [14] has as its system Daudi. The experiment is described as follows: Effect on total PI3K protein level in human Daudi cells at 0.75 to 3 uM incubated for 24 hrs by Western blot analysis. Format: functional, cell-based. Conditions: dose 0.75-3 µM.
In experiment [15] the test system is Daudi. The experiment is described as follows: Effect on total AKT protein level in human Daudi cells at 0.75 to 3 uM incubated for 24 hrs by Western blot analysis. The experiment is classed as functional, cell-based. Conditions: dose 0.75-3 µM.
Experiment [16] relates to Daudi. Nature of the experiment: Effect on total mTOR protein level in human Daudi cells at 0.75 to 3 uM incubated for 24 hrs by Western blot analysis. Conditions: dose 0.75-3 µM. The experiment is classed as functional, cell-based.
Experiment [17] concerns Raji. Nature of the experiment: Downregulation of c-Myc expression level in human Raji cells incubated for 24 hrs by Western blot analysis. Format: functional, cell-based. Conditions: dose 1.25-5 µM.
Experiment [18] is described as follows: Inhibition of PI3K/AKT/mTOR signalling pathway in human Daudi cells assessed as increase in ratio of AKT phosphorylation at […] residue to total AKT protein level at 3 uM incubated for 12 hrs in the presence of YS49 by Western blot analysis. The experiment is classed as cell-based.
Experiment [19] relates to Daudi. Nature of the experiment: Induction of apoptosis in human Daudi cells assessed as viable cells at 3 uM incubated for 24 hrs in the presence of YS49 by Annexin V-FITC/PI staining based flow cytometric analysis (reference value: 97.2%). The conditions noted are these: read-out: Activity. Format: functional.
For experiment [20], the system named is Daudi. Nature of the experiment: Induction of apoptosis in human Daudi cells assessed as early apoptotic cells at 3 uM incubated for 24 hrs in the presence of YS49 by Annexin V-FITC/PI staining based flow cytometric analysis (reference value: 1.7%). Format: functional.
Experiment [21] concerns Daudi. The experiment is described as follows: Induction of apoptosis in human Daudi cells assessed as late apoptotic cells at 3 uM incubated for 24 hrs in the presence of YS49 by Annexin V-FITC/PI staining based flow cytometric analysis (reference value: 0.0%). Format: functional.
The subject of experiment [22] is Raji. Nature of the experiment: Induction of apoptosis in human Raji cells assessed as late apoptotic cells at 5 uM incubated for 24 hrs in the presence of YS49 by Annexin V-FITC/PI staining based flow cytometric analysis (reference value: 0.0%). Format: functional.

SMILES strings stand for the structures. Calls of active or inactive are those of the source. The rule behind the calls is not given here.

Turning to `COc1c(OC)c2c3c(nccc3c1-c1cc(C)cc(C)c1)C(c1cc(C)cc(C)c1)=CN2`, the IC50 – broadly, the concentration that inhibits the measured activity by half – in the experiment on Daudi [1] was found to be 3.48 µM. Also, the Activity in the experiment with Daudi [2] was 49.7%; with Daudi [6], 30.03%; with Daudi [11], “Dose-Dependent Effect”; in the experiment with Raji [17], “Dose-Dependent Effect”; in the experiment on Daudi [20], 16.7%; with Daudi [21] it was 1.5%. The Activity with Raji [22] was determined as 0.9%. Also, the outcome with Daudi [3], in the experiment with Raji [4], in the experiment with Raji [5], with Daudi [7], with Raji [9] and with Raji [10] was Active. Moreover, the result with Daudi [12] and in the experiment with Daudi [13] was Active. Also, the outcome in the experiment on Daudi [8], in the experiment with Daudi [14], with Daudi [15] and with Daudi [16] was inactive. Further, in experiment [18], the inhibition result is “inactive”. Also, the viability at 3 µM in the experiment with Daudi [19] worked out at 80.2%.
